Results: patent US9757457B2, “Use of 2-deoxy-D-glucose to sensitize cancer cells to an agent that activates the extrinsic apoptotic pathway” (The Board of Trustees of the University of Illinois, priority 2013, dated 2017)

How the values were obtained:
[1] = clinical trials; cited from earlier work
[2] = test system: HT29 cells; assay: Tumor cell apoptosis in HT29 colon cancer cells (Annexin V flow cytometry; caspase-3 activation); format: cell-based, human; conditions: for tumor cell apoptosis: HT29 cells, any dose, Annexin V staining, flow cytometry
Protocol: FIG. 2A, HT-29 cells were treated with a general caspase inhibitor (Q-VD-OPh) and simultaneously treated with the indicated compounds. Apoptosis was assessed by Annexin V/PI staining. FIG. 2B, HT-29 cells were stably transfected with CrmA, DN-FADD plasmid constructs (a dominant-negative variant of FAS-associated via death domain protein) or an empty vector. These cell lines, as well as untransfected cells, were then treated with the indicated compounds and apoptosis was assessed by Annexin V/PI staining. n=3, * indicates p<0.05, ** indicates p<0.01, ns indicates p>0.05.
(§1) While this makes TRAIL a promising anti-cancer therapy, there are numerous examples of both inherent and acquired resistance to TRAIL treatment. […] It was posited that this may have been due to either inherent or acquired TRAIL resistance. Therefore, a panel of well-established human colorectal tumor cell lines (HT-29, COLO-205 and SW-620) was analyzed to determine TRAIL sensitivity. […] Therefore, this human cell line was selected for use as a model for in vitro experiments.
To assess the effect of 2DG on HT29 cells, HT29 cells were treated with increasing doses (0-50 mM) of 2DG in vitro.
(§2) To assess the effect of TRAIL on colon (HT29, COLO-205, SW-620), gastric (AGS) and pancreatic (PANC-1) cancer cell lines, cells were treated with increasing doses (0, 6.25, 12.5, 25, 50 and 100 ng/mL) of TRAIL in vitro.
To determine the mechanism of apoptosis, HT-29 and SW-620 cells were treated every 6 hours with 2DG, TRAIL or 2DG and TRAIL. […] HT-29 cells were also fractionated into cytoplasmic and membrane-heavy fractions, with COXIV as a marker of the membrane heavy fraction and beta actin as a loading control.
(§3) TRAIL mediates its effects by binding to cell surface death receptors 4 and 5 (DR4, DR5). This initiates the extrinsic apoptosis pathway ultimately resulting in cell death. Therefore, it was determined whether 2DG primes tumor cells to TRAIL by altering DR expression in HT29 cells. […] By comparison, DR4 levels were unchanged by 2DG treatment. In addition, increased surface expression of DR5 correlated with TRAIL sensitivity over time.

[3] = test system: DR5; assay: Death receptor expression in HT29 cells after 2DG: DR5; format: cell-based, human; conditions: HT29 cells after treatment with 2DG
Protocol: as §3

[4] = test system: DR4; assay: Death receptor expression in HT29 cells after 2DG: DR4; format: cell-based, human; conditions: HT29 cells after treatment with 2DG
Protocol: as §3

[5] = test system: human colon cancer cells
[6] = test system: COLO-205; assay: Tumor cell apoptosis in COLO-205 colon cancer cells (Annexin V flow cytometry); format: cell-based, human; conditions: TRAIL 0-100 ng/mL, any dose, Annexin V staining
Protocol: as §1, §2

[7] = test system: SW-620; assay: Tumor cell apoptosis in SW-620 colon cancer cells (Annexin V flow cytometry; caspase-3 activation); format: cell-based, human; conditions: TRAIL 0-100 ng/mL, any dose, Annexin V staining
Protocol: as §1, §2

[8] = test system: human cancer patients with various tumor histologies; conditions: phase I trial, cited from earlier work
[9] = test system: AGS gastric cancer cell line; assay: Tumor cell apoptosis in AGS gastric cancer cell line (Annexin V flow cytometry; caspase-3 activation); format: cell-based; conditions: TRAIL 0-100 ng/mL, any dose, Annexin V staining
Protocol: as §2

[10] = test system: PANC-1 pancreatic cancer cell line; assay: Tumor cell apoptosis in PANC-1 pancreatic cancer cell line (Annexin V flow cytometry; caspase-3 activation); format: cell-based; conditions: TRAIL 0-100 ng/mL, any dose, Annexin V staining
Protocol: as §2

For `OCC1OC(O)CC(O)[C@@H]1O` (stereo in doubt) [2DG, 2-deoxy-D-glucose], the tolerability [1] is listed as “well-tolerated”, the tumor cell apoptosis ([2]; 2DG 0-50 mM) is listed as no more than 5% and the “DR5 mRNA level” value [3] is listed as “upregulated”. The “DR5 total protein level” value [3] was “upregulated” and the DR4 levels [4] was “unchanged”.

With `CC(=O)N[C@@H](CS)C(=O)O` [N-acetylcysteine] the “effect on cytotoxicity of 2DG and oxaliplatin” value [5] was “can abrogate this cytotoxicity”.

With `CC(C)[C@H](NC(=O)c1ccc2ccccc2n1)C(=O)N[C@@H](CC(=O)O)C(=O)COc1c(F)cccc1F` [Q-VD-OPh] the “effect of caspase blockade on anti-tumor effect of 2DG and TRAIL” value ([2]; HT-29, simultaneous treatment with 2DG and TRAIL, Annexin V/PI staining, FIG. 2A) was “inhibited the anti-tumor effect of the combination treatment”.

For “TRAIL: TNF-related apoptosis-inducing ligand; cytokine that causes apoptosis by binding death receptors DR4 and DR5”, the tumor cell apoptosis [6] was no more than 12%, the tumor cell apoptosis ([2]; TRAIL 0-100 ng/mL) was no more than 12% and the “TRAIL sensitivity (TRAIL-induced apoptosis)” value ([2]; HT-29 cell line, maximal doses) was “resistance to TRAIL at even maximal doses”. For the same compound, the tumor cell apoptosis [7] was no more than 12%, the tolerability [8] was “well-tolerated” and the objective tumor response ([8]; patients with colorectal cancer) was “none of the patients with colorectal cancer had an objective tumor response”. It also gave a tumor cell apoptosis [9] of no more than 12% and a tumor cell apoptosis [10] of no more than 12%.
